Test results taken from patent US12161722B2, “Bifunctional heterocyclic compound having BTK degradation function via ubiquitin proteasome pathway, and use thereof” (KOREA RESEARCH INSTITUTE OF CHEMICAL TECHNOLOGY, priority 2021, dated 2024).

Legend:
C481S BTK protein = biological target: T1, C481S BTK protein (Homo sapiens, UniProt Q06187, C481S); test: BTK protein degradation assay (Western blotting), C481S BTK; type: cell-based; settings: concentration range accounting for 50% degradation of C481S BTK protein, 293T BTK MUT (C481S) cells
T1 construct: expressed in transfected cells; host or cells: 293T BTK MUT (C481S) cells
Procedure: TMD-8, RAMOS, or 293T BTK MUT (C481S) cells were treated with the synthesized compounds and measured for intracellular BTK protein levels by Western blotting. The protocol of the experiment using TMD-8 cells is as follows.
The 12-well plates were treated as follows. A 10 mM stock was 1/10 diluted in series with DMSO ([…]) to form final concentrations of 10, 1, 0.1, 0.01, 0.001, and 0.0001 mM. The compounds with such concentrations were applied to cells, followed by harvesting the cells 24 hours later. For a negative control, a 1/10 dilution of DMSO in the medium (3 mL DMSO+27 mL medium) was used.
The 1-mL cell culture in each well was passed many times through a pipette and then transferred into a 1.5-mL microtube before centrifugation (500 g, 5 min, 4° C.). The supernatant was discarded and the cell pellet was washed with PBS. After centrifugation (500 g, 5 min, 4° C.) again, the supernatant was discarded and the cell pellet was taken.
A lysis buffer was prepared as follows. RIPA buffer (Biosesang, RC2038-050-00)+0.5 mM PMSF (SIGMA, P7626)+1×Protease/Phosphatase Inhibitor (Cell signaling, 5872S) was added in an amount […] per well and left for 30 minutes on ice (vortexing at 0 and 30 minutes) before sonication (5 cycles of pulse for 10 seconds and rest for 30 seconds, 70% amplification). The supernatant obtained by centrifugation (15000 g, 15 min, 4° C.) was transferred into a new microtube. Cells in each well of 96-well plates were 1/2 diluted with the RIPA buffer and incubated at 37° C. for 30 minutes with […] of a 50:1 mixture of BCA reagents A and B in BCA Protein Assay Kit (iNtRON, 21071). After being cooled for 10 minutes, the 96-well plates were measured for absorbance at 562 nm on the BioTek, SYNERGY H1 microplate reader. Samples were prepared by protein quantification based on the absorbance measurements and then boiled at 70° C. for 10 minutes. The sample buffer used in the case was prepared by mixing a NuPAGE or a Bolt 4× sample buffer (Invitrogen) and its 10× sample reducing agent depending on the gel to be used, and protein dilution was made in a RIPI buffer.
The samples were loaded in the same amount into a NuPAGE or Bolt Bis-tris 4-12% gradient gel and allowed to run therein (200 V, 35 minutes). The separated proteins were transferred onto a […] NC membrane, using Trans-blot Turbo (BIO-RAD) (1.3 A constant, 25V limit, 15 minutes). The membrane was blocked at room temperature for 1 hour with skim milk or Intercept Blocking Buffer (LI-COR, 927-60001):0.1% TBST=1:1. The membrane was incubated with Anti BTK Rabbit (1:1,000 in 5% skim milk/0.2% TBST, size: 77 kDa, Cell signaling Technology) at 4° C. overnight O/N or at room temperature for 2 hours and with Anti GAPDH Rabbit (1:10,000 in 5% BSA/0.2% TBST, size: 36 kDa, GENETEX) and Anti β-actin mouse (1:10,000 in 5% BSA/0.2% TBST, RT, size: 43 kDa, GENETEX) at room temperature for 1 or 3 hours. Then, the membrane was washed three times with 0.5% TBST for 5 minutes each time before incubation with the second antibody Anti-Rabbit IgG (1:5,000 in 5% Skim milk/TBST, CST), IRDye® 800CW Goat anti-Rabbit IgG Secondary Antibody (1:10,000 in 5% skim/TBST, RT 45 min), or IRDye® 680RD Goat anti-Mouse IgG Secondary Antibody (1:10,000 in 5% skim/TBST, RT 45 min) for 45 minutes at room temperature in a rocker. The membrane was washed five times with 0.5% TBST for 5 minutes in each time, followed by detection with LI-COR, Odyssey. In this regard, the detection proceeded, as it was, for house-keeping genes while using SuperSignal West Pico PLUS Chemiluminescent Substrate or SuperSignal West femto Maximum Sensitivity Substrate for BTK detection.
According to the concentration ranges of compounds accounting for 50% degradation of WT BTK protein and C481S BTK protein, the activities are expressed as +++(0.0001-0.01 μM), ++(0.01-1 μM), +(1-10 μM), −(>10 μM), and NT (not tested). […]

WT BTK protein = biological target: T2, WT BTK protein (Homo sapiens, UniProt Q06187); test: BTK protein degradation assay (Western blotting), WT BTK; type: cell-based; settings: concentration range accounting for 50% degradation of WT BTK protein, TMD-8 or RAMOS cells, 24 hours
T2 construct: measured for intracellular BTK protein levels by Western blotting; endogenous in cells; host or cells: TMD-8 or RAMOS cells
Outline: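 TMD-8 cells (1×10^6 cells/mL) treated 24 h with compound serial dilutions, then lysed in RIPA. Equal protein loads analysed by Western blot for BTK with GAPDH/β-actin as loading controls; activity binned by concentration giving 50% WT BTK degradation.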

T1 sequence (Q06187 whole entry C481S): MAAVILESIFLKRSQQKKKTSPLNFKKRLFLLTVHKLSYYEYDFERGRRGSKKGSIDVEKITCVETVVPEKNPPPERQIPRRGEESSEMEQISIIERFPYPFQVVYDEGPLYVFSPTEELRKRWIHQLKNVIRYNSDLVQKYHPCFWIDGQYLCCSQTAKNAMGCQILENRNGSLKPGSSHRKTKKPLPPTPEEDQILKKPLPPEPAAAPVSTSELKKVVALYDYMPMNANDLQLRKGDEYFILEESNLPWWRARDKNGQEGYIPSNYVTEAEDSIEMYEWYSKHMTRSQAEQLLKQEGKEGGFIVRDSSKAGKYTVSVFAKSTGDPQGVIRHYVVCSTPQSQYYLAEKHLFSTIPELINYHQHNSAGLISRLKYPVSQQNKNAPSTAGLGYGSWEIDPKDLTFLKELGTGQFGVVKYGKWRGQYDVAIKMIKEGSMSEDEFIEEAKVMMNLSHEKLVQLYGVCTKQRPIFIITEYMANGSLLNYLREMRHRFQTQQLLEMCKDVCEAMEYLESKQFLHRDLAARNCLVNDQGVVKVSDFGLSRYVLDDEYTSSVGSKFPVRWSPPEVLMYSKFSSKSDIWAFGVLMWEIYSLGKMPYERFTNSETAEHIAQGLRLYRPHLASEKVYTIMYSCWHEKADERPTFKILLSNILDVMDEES
T2 sequence (Q06187 whole entry): as the sequence (Q06187 whole entry C481S) above, with S481C counted along it

DC50 (C481S BTK protein) [nM]	DC50 (WT BTK protein) [nM]	Compound
> 10000	0.1 to 10	Cc1cccc(C)c1Nc1nn(C)c2nc(Nc3ccc4c(c3)CN(C(=O)CCOCCOCCOCCOCCNC(=O)COc3cccc5c3C(=O)N(C3CCC(=O)NC3=O)C5=O)CC4)ncc12 (stereo not drawn) [Compound 17, N-(15-(7-((3-((2,6-Dimethylphenyl)amino)-1-methyl-1H-pyrazolo[3,4-d]pyrimidin-6-yl)amino)-3,4-dihydroisoquinolin-2 (1H)-yl)-15-oxo-3,6,9,12-tetraoxapentadecyl)-2-((2-(2,6-dioxopiperidin-3-yl)-1,3-dioxoisoindolin-4-yl)oxy)acetamide]
> 10000	0.1 to 10	Cc1cccc(C)c1Nc1nn(C)c2nc(Nc3ccc4c(c3)CN(C(=O)CCOCCOCCOCCOCCNC(=O)CN3CCN(c5ccc6c(c5)C(=O)N(C5CCC(=O)NC5=O)C6=O)CC3)CC4)ncc12 (stereo not drawn) [Compound 18]
> 10000	10 to 1000	Cc1cccc(C)c1Nc1nn(C)c2nc(Nc3ccc4c(c3)CN(C(=O)c3cn(CCOCCOCCOCCNC(=O)CNc5cccc6c5C(=O)N(C5CCC(=O)NC5=O)C6=O)nn3)CC4)ncc12 (stereo not drawn) [Compound 19, N-(2-(2-(2-(2-(4-(7-((3-((2,6-Dimethylphenyl)amino)-1-methyl-1H-pyrazolo[3,4-d]pyrimidin-6-yl)amino)-1,2,3,4-tetrahydroisoquinoline-2-carbonyl)-1H-1,2,3-triazol-1-yl)ethoxy)ethoxy)ethoxy)ethyl)-2-((2-(2,6-dioxopiperidin-3-yl)-1,3-dioxoisoindolin-4-yl)amino)acetamide]
1000 to 10000	0.1 to 10	Cc1cccc(C)c1Nc1nn(C)c2nc(Nc3ccc4c(c3)CN(CCOCCNC(=O)CN3CCN(c5ccc6c(c5)C(=O)N(C5CCC(=O)NC5=O)C6=O)CC3)CC4)ncc12 (stereo not drawn) [Compound 20, N-(2-(2-(7-((3-((2,6-Dimethylphenyl)amino)-1-methyl-1H-pyrazolo[3,4-d]pyrimidin-6-yl)amino)-3,4-dihydroisoquinolin-2 (1H)-yl)ethoxy)ethyl)-2-(4-(2-(2,6-dioxopiperidin-3-yl)-1,3-dioxoisoindolin-5-yl)piperazin-1-yl)acetamide]
1000 to 10000	0.1 to 10	Cc1cccc(C)c1Nc1nn(C)c2nc(Nc3ccc4c(c3)CN(CCOCCNC(=O)C3CCN(c5ccc6c(c5)C(=O)N(C5CCC(=O)NC5=O)C6=O)CC3)CC4)ncc12 (stereo not drawn) [Compound 21, N-(2-(2-(7-((3-((2,6-Dimethylphenyl)amino)-1-methyl-1H-pyrazolo[3,4-d]pyrimidin-6-yl)amino)-3,4-dihydroisoquinolin-2 (1H)-yl)ethoxy)ethyl)-1-(2-(2,6-dioxopiperidin-3-yl)-1,3-dioxoisoindolin-5-yl)piperidine-4-carboxamide]
> 10000	0.1 to 10	Cc1cccc(C)c1Nc1nn(C)c2nc(Nc3ccc4c(c3)CN(C(=O)CCOCCOCCOCCOCCNC(=O)CNc3ccc5c(c3)C(=O)N(C3CCC(=O)NC3=O)C5=O)CC4)ncc12 (stereo not drawn) [Compound 22, N-(15-(7-((3-((2,6-dimethylphenyl)amino)-1-methyl-1H-pyrazolo[3,4-d]pyrimidin-6-yl)amino)-3,4-dihydroisoquinolin-2 (1H)-yl)-15-oxo-3,6,9,12-tetraoxapentadecyl)-2-((2-(2,6-dioxopiperidin-3-yl)-1,3-dioxoisoindolin-5-yl)amino)acetamide]
1000 to 10000	0.1 to 10	Cc1cccc(C)c1Nc1nn(C)c2nc(Nc3ccc4c(c3)CN(CCOCCOCC(=O)Nc3ccc5c(c3)C(=O)N(C3CCC(=O)NC3=O)C5=O)CC4)ncc12 (stereo not drawn) [Compound 23, 2-(2-(2-(7-((3-((2,6-Dimethylphenyl)amino)-1-methyl-1H-pyrazolo[3,4-d]pyrimidin-6-yl)amino)-3,4-dihydroisoquinolin-2 (1H)-yl)ethoxy)ethoxy)-N-(2-(2,6-dioxopiperidin-3-yl)-1,3-dioxoisoindolin-5-yl)acetamide]
1000 to 10000	0.1 to 10	Cc1cccc(C)c1Nc1nn(C)c2nc(Nc3ccc4c(c3)CN(CCOCCNC(=O)C3CCN(c5cccc6c5C(=O)N(C5CCC(=O)NC5=O)C6=O)CC3)CC4)ncc12 (stereo not drawn) [Compound 24, N-(2-(2-(7-((3-((2,6-Dimethylphenyl)amino)-1-methyl-1H-pyrazolo[3,4-d]pyrimidin-6-yl)amino)-3,4-dihydroisoquinolin-2 (1H)-yl)ethoxy)ethyl)-1-(2-(2,6-dioxopiperidin-3-yl)-1,3-dioxoisoindolin-4-yl)piperidine-4-carboxamide]
1000 to 10000	0.1 to 10	Cc1cccc(C)c1Nc1nn(C)c2nc(Nc3ccc4c(c3)CN(CCOCCNC(=O)COc3ccc5c(c3)C(=O)N(C3CCC(=O)NC3=O)C5=O)CC4)ncc12 (stereo not drawn) [Compound 25, N-(2-(2-(7-((3-((2,6-Dimethylphenyl)amino)-1-methyl-1H-pyrazolo[3,4-d]pyrimidin-6-yl)amino)-3,4-dihydroisoquinolin-2 (1H)-yl)ethoxy)ethyl)-2-((2-(2,6-dioxopiperidin-3-yl)-1,3-dioxoisoindolin-5-yl)oxy)acetamide]
1000 to 10000	0.1 to 10	Cc1cccc(C)c1Nc1nn(C)c2nc(Nc3ccc4c(c3)CN(C(=O)[C@H]3CCCN3C(=O)C3CCN(c5ccc6c(c5)C(=O)N(C5CCC(=O)NC5=O)C6=O)CC3)CC4)ncc12 (stereo partly drawn) [Compound 26, 5-(4-((R)-2-(7-((3-((2,6-Dimethylphenyl)amino)-1-methyl-1H-pyrazolo[3,4-d]pyrimidin-6-yl)amino)-1,2,3,4-tetrahydroisoquinoline-2-carbonyl)pyrrolidine-1-carbonyl)piperidin-1-yl)-2-(2,6-dioxopiperidin-3-yl)isoindoline-1,3-dione]
1000 to 10000	0.1 to 10	Cc1cccc(C)c1Nc1nn(C)c2nc(Nc3ccc4c(c3)CN(CCOCCNC(=O)C3CN(c5ccc6c(c5)C(=O)N(C5CCC(=O)NC5=O)C6=O)C3)CC4)ncc12 (stereo not drawn) [Compound 27, N-(2-(2-(7-((3-((2,6-Dimethylphenyl)amino)-1-methyl-1H-pyrazolo[3,4-d]pyrimidin-6-yl)amino)-3,4-dihydroisoquinolin-2 (1H)-yl)ethoxy)ethyl)-1-(2-(2,6-dioxopiperidin-3-yl)-1,3-dioxoisoindolin-5-yl)azetidine-3-carboxamide]
0.1 to 10	0.1 to 10	Cc1cccc(C)c1Nc1nn(C)c2nc(Nc3ccc4c(c3)CN(CC3CCN(C(=O)C5CCN(c6ccc7c(c6)C(=O)N(C6CCC(=O)NC6=O)C7=O)CC5)CC3)CC4)ncc12 (stereo not drawn) [Compound 28, 5-(4-(4-((7-((3-((2,6-Dimethylphenyl)amino)-1-methyl-1H-pyrazolo[3,4-d]pyrimidin-6-yl)amino)-3,4-dihydroisoquinolin-2 (1H)-yl)methyl)piperidine-1-carbonyl)piperidin-1-yl)-2-(2,6-dioxopiperidin-3-yl)isoindoline-1,3-dione]
